One block for each compound: values may come before it.
How the values were obtained:
[1] = biological target: T1, Ornithine decarboxylase (Mus musculus) (UniProt P00860); experiment: Inhibition of ornithine decarboxylase activity in hairless mouse skin in vivo; format: organism-based
T1 sequence (whole entry): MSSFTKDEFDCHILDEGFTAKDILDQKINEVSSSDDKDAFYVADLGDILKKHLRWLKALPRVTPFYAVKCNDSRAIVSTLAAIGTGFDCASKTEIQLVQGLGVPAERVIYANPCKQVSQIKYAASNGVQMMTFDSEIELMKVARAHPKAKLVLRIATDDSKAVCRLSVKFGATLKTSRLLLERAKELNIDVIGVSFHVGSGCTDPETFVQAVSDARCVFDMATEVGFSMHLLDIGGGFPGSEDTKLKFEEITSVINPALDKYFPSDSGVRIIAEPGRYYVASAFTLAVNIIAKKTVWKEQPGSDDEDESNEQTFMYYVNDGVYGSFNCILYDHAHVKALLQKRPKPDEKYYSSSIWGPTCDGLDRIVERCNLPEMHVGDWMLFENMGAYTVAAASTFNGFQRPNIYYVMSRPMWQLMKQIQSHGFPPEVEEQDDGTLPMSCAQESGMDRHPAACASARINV

[2] = biological target: T2, Retinoic acid receptor beta (Homo sapiens, UniProt P10826); experiment: Transactivation potency for Retinoic acid receptor beta
T2 sequence (P10826 whole entry): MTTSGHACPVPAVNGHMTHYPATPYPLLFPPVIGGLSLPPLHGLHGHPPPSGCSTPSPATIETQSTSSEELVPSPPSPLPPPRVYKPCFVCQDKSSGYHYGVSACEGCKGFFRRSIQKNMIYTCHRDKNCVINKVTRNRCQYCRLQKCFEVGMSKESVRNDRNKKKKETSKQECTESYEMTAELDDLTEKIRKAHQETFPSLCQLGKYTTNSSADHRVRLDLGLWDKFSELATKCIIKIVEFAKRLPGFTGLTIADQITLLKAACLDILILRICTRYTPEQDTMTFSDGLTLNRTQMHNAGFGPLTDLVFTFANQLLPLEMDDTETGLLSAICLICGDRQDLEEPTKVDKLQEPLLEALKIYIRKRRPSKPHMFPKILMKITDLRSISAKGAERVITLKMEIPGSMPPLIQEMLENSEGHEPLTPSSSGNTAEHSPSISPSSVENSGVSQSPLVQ

[3] = biological target: T3, Retinoic acid receptor gamma (Homo sapiens, UniProt P13631); experiment: Binding affinity for Retinoic acid receptor gamma
T3 sequence (P13631 whole entry): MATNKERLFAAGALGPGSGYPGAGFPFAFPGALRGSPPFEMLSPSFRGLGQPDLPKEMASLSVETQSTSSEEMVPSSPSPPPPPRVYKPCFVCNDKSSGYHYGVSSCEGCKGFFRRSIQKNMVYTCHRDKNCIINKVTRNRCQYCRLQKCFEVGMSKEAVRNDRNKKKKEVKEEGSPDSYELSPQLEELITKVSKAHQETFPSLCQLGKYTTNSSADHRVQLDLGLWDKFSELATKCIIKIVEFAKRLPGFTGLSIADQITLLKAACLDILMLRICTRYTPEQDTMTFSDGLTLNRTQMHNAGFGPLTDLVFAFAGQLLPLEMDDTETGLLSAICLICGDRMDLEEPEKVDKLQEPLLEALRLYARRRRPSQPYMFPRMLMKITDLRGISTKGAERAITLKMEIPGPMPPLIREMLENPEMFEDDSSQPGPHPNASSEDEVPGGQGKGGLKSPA

[4] = biological target: T4, Retinoic acid receptor alpha (Homo sapiens, UniProt P10276); experiment: Binding affinity for Retinoic acid receptor alpha
T4 sequence (P10276 whole entry): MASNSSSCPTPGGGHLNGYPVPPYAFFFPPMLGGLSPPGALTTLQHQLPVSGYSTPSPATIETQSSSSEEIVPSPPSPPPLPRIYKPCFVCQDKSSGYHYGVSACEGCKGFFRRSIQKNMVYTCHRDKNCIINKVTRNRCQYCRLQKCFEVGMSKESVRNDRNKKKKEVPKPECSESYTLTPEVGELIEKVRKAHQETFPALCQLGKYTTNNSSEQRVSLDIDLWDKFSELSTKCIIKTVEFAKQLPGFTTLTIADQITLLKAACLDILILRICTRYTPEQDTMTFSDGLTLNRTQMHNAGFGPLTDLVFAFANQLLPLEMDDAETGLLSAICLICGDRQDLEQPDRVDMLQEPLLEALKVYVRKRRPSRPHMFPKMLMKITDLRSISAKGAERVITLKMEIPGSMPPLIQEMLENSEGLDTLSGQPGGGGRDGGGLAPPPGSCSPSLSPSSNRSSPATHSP

[5] = biological target: T4, Retinoic acid receptor alpha; experiment: Transactivation potency for Retinoic acid receptor alpha; Not active
[6] = biological target: T3, Retinoic acid receptor gamma; experiment: Transactivation potency for Retinoic acid receptor gamma
[7] = biological target: T2, Retinoic acid receptor beta; experiment: Binding affinity for Retinoic acid receptor beta
[8] = biological target: T4, Retinoic acid receptor alpha; experiment: Binding affinity for Retinoic acid receptor alpha; Not active
[9] = biological target: T4, Retinoic acid receptor alpha; experiment: Transactivation potency for Retinoic acid receptor alpha
[10] = biological target: T3, Retinoic acid receptor gamma; experiment: Transactivation potency for Retinoic acid receptor gamma; Not active
[11] = biological target: T2, Retinoic acid receptor beta; experiment: Transactivation potency for Retinoic acid receptor beta; Not active

SMILES: CC(C)N1CCC(C)(C)c2cc(C#Cc3ccc(C(=O)O)cc3)ccc21
EC50 [2]: 10 nM
Kd [3]: 72 nM
Kd [4]: 627 nM
EC50 [5]: Not Active
EC50 [6]: 6 nM
Kd [7]: 60 nM

SMILES: CC1(C)CCNc2cc(C#Cc3ccc(C(=O)O)cc3)ccc21
EC50 [2]: 36 nM
Kd [8]: Not Active
Kd [3]: 233 nM
EC50 [5]: Not Active
EC50 [6]: 54 nM
Kd [7]: 211 nM

SMILES: CC1(C)CCNc2ccc(C#Cc3ccc(C(=O)O)cc3)cc21
EC50 [2]: 170 nM
Kd [3]: 2420 nM
Kd [4]: 5200 nM
EC50 [6]: 130 nM
EC50 [9]: 2300 nM
Kd [7]: 714 nM

SMILES: CC1(C)CC(=O)Nc2ccc(C#Cc3ccc(C(=O)O)cc3)cc21
EC50 [10]: Not Active
Kd [3]: > 1000 nM
Kd [4]: > 1000 nM
EC50 [5]: Not Active
EC50 [11]: Not Active
Kd [7]: > 1000 nM

SMILES: CCOC(=O)c1ccc(C#Cc2ccc3c(c2)C(C)(C)CC(=O)N3)cc1
IC60 [1]: > 300 nM

SMILES: CC(C)N1CCC(C)(C)c2ccc(C#Cc3ccc(C(=O)O)cc3)cc21
EC50 [2]: 3 nM
Kd [3]: 52 nM
Kd [4]: 52 nM
EC50 ([5]; read-out: EC50): 17 nM
EC50 [6]: 3 nM
Kd [7]: 18 nM

SMILES: CCOC(=O)c1ccc(C#Cc2ccc3c(c2)N(C(C)C)CCC3(C)C)cc1
IC60 [1]: < 0.1 nM

SMILES: CCCCCCCN1CCC(C)(C)c2cc(C#Cc3ccc(C(=O)OCC)cc3)ccc21
IC60 [1]: > 300 nM

SMILES: CCOC(=O)c1ccc(C#Cc2ccc3c(c2)C(C)(C)CC(=O)N3C(C)C)cc1
IC60 [1]: 6 nM

SMILES: CCOC(=O)c1ccc(C#Cc2ccc3c(c2)C(C)(C)CCN3)cc1
IC60 [1]: 5 nM

SMILES: CCOC(=O)c1ccc(C#Cc2ccc3c(c2)NC(=O)CC3(C)C)cc1
IC60 [1]: > 300 nM

SMILES: CC(C)N1C(=O)CC(C)(C)c2ccc(C#Cc3ccc(C(=O)O)cc3)cc21
EC50 [2]: 4 nM
Kd [3]: 23 nM
Kd [4]: 58 nM
EC50 [5]: Not Active
EC50 [6]: 20 nM
Kd [7]: 18 nM

SMILES: CCCCCCCN1CCC(C)(C)c2cc(C#Cc3ccc(C(=O)O)cc3)ccc21
EC50 [2]: 280 nM
Kd [3]: > 1000 nM
Kd [4]: > 1000 nM
EC50 [5]: Not Active
EC50 [6]: 260 nM
Kd [7]: > 1000 nM

Second part, the compound after the results:

IC60 [1]: 2.9 nM
SMILES: CCOC(=O)c1ccc(C#Cc2ccc3c(c2)N(C(C)C)C(=O)CC3(C)C)cc1

IC60 [1]: 7 nM
SMILES: CCOC(=O)c1ccc(C#Cc2ccc3c(c2)NCCC3(C)C)cc1

IC60 [1]: 1.4 nM
SMILES: CC1=C(/C=C/C(C)=C/C=C/C(C)=C/C(=O)O)C(C)(C)CCC1

IC60 [1]: 0.4 nM
SMILES: CCOC(=O)c1ccc(C#Cc2ccc3c(c2)C(C)(C)CCN3C(C)C)cc1

IC60 [1]: 0.33 nM
SMILES: CCOC(=O)c1ccc(/C=C(\C)c2ccc3c(c2)C(C)(C)CCC3(C)C)cc1

EC50 [2]: 1000 nM
Kd [3]: > 1000 nM
Kd [4]: > 1000 nM
EC50 [5]: Not Active
EC50 [6]: 200 nM
Kd [7]: > 1000 nM
SMILES: CC1(C)CC(=O)Nc2cc(C#Cc3ccc(C(=O)O)cc3)ccc21

EC50 [2]: 4 nM
Kd [3]: 17 nM
Kd [4]: 136 nM
EC50 [5]: Not Active
EC50 [6]: 4 nM
Kd [7]: 17 nM
SMILES: CC(C)N1C(=O)CC(C)(C)c2cc(C#Cc3ccc(C(=O)O)cc3)ccc21
